Results reported in US10851083B2, “Benzoimidazoles as prolyl hydroxylase inhibitors” (Janssen Pharmaceutica NV, priority 2008, dated 2020).

Legend:
Hep-3B cells = assay: Cellular assay: EPO secretion in Hep-3B cells; format: cell-based, human; design: EPO secretion, % of control compound: dose or concentration left out as unconfirmed; conditions: Homo sapiens, Hep3B, 24 h, EPO secretion as percentage of control compound 7-[(4-Chloro-phenyl)-(5-methyl-isoxazol-3-ylamino)-methyl]-quinolin-8-ol, read-out: Cellular % EPO Stimulation
human PHD2181-417 = human PHD2181-417 (Homo sapiens (Human), UniProt Q9GZT9); assay: PHD2 enzyme activity assay ([14C]-succinic acid production); format: biochemical; conditions: PHD2181-417 polypeptide, HIF-1α peptide 10 μM, [5-14C]-2-oxoglutaric acid; 30 min pre-incubation; tested 10 μM to 3 nM;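 note: reaction ran 10 min with compound in Tris pH 7.5 buffer with catalase, DTT and ascorbate, labelled succinate freed of leftover 2-oxoglutarate by DNP precipitation, then beta counted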
Chain of human PHD2181-417 (Q9GZT9 181-417): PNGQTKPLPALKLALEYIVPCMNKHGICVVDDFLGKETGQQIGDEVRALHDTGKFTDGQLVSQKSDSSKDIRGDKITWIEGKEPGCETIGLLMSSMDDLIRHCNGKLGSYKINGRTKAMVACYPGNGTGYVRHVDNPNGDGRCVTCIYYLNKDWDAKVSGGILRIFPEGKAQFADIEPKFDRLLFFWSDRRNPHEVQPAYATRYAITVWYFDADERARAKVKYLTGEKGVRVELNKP

SMILES | EPO secretion, % of control compound (Hep-3B cells) [%] | Enzyme pIC50 (human PHD2181-417)
O=C(O)c1cnn(-c2nc3cc(Cl)cc(C(F)(F)F)c3[nH]2)c1 [Example 28, 1-(5-Chloro-7-trifluoromethyl-1H-benzoimidazol-2-yl)-1H-pyrazole-4-carboxylic Acid] | 16.6 | 6.4
O=C(O)c1cnn(-c2nc3cc(Sc4ccc(Cl)c(Cl)c4)c(Cl)cc3[nH]2)c1 [Example 63, 1-[6-Chloro-5-(3,4-dichloro-phenylsulfanyl)-1H-benzoimidazol-2-yl]-1H-pyrazole-4-carboxylic Acid] | 26.5 | 6.18
O=C(O)c1cnn(-c2nc3cc(Sc4ccccc4)c(C(F)(F)F)cc3[nH]2)c1 [Example 159, 1-(5-Phenylsulfanyl-6-trifluoromethyl-1H-benzoimidazol-2-yl)-1H-pyrazole-4-carboxylic Acid] | 11 | 7.4
O=C(O)c1cnn(-c2nc3nc4cc(Cl)c(Cl)cc4nc3[nH]2)c1 [Example 183, 1-(6,7-Dichloro-1H-imidazo[4,5-b]quinoxalin-2-yl)-1H-pyrazole-4-carboxylic Acid] | 3.3 | 6.4
CCS(=O)(=O)c1cc2[nH]c(-n3cc(C(=O)O)cn3)nc2cc1Cl [Example 96, 1-(5-Chloro-6-ethanesulfonyl-1H-benzoimidazol-2-yl)-1H-pyrazole-4-carboxylic Acid] | 67 | 7.4
O=C(O)c1cnn(-c2nc3cc(OCc4ccccc4)c(Cl)cc3[nH]2)c1 [Example 59, 1-(5-Benzyloxy-6-chloro-1H-benzoimidazol-2-yl)-1H-pyrazole-4-carboxylic Acid] | 55.9 | 6.4
O=C(O)c1cnn(-c2nc3cc(SCc4ccc(F)cc4)c(Cl)cc3[nH]2)c1 [Example 68, 1-[6-Chloro-5-(4-fluoro-benzylsulfanyl)-1H-benzoimidazol-2-yl]-1H-pyrazole-4-carboxylic Acid] | 58.4 | 6.8
O=C(O)c1cnn(-c2nc3cc(F)ccc3[nH]2)c1 [Example 42, 1-(5-Fluoro-1H-benzoimidazol-2-yl)-1H-pyrazole-4-carboxylic Acid] | 33.8 | 6.3
O=C(O)c1cnn(-c2nc3cc([N+](=O)[O-])c(Cl)cc3[nH]2)c1 [Example 40, 1-(6-Chloro-5-nitro-1H-benzoimidazol-2-yl)-1H-pyrazole-4-carboxylic Acid] | 93.4 | 7.5
O=C(O)c1cnn(-c2nc3cc(SCc4c(Cl)cccc4Cl)c(Cl)cc3[nH]2)c1 [Example 168, 1-[6-Chloro-5-(2,6-dichloro-benzylsulfanyl)-1H-benzoimidazol-2-yl]-1H-pyrazole-4-carboxylic Acid] | 50.1 | 7.3
O=C(O)c1cnn(-c2nc3cc(C(F)(F)F)c(C(F)(F)F)cc3[nH]2)c1 [Example 126, 1-(5,6-Bis-trifluoromethyl-1H-benzoimidazol-2-yl)-1H-pyrazole-4-carboxylic Acid] | 82.7 | 7.4
O=C(O)c1cnn(-c2nc3cc4ccccc4cc3[nH]2)c1 [Example 114, 1-(1H-Naphtho[2,3-d]imidazol-2-yl)-1H-pyrazole-4-carboxylic Acid] | 144 | 6.3
CC(=O)Nc1cc2nc(-n3cc(C(=O)O)cn3)[nH]c2cc1Cl [Example 139, 1-(5-Acetylamino-6-chloro-1H-benzoimidazol-2-yl)-1H-pyrazole-4-carboxylic Acid] | 24 | 6.3
Cc1c(F)ccc2[nH]c(-n3cc(C(=O)O)cn3)nc12 [Example 116, 1-(5-Fluoro-4-methyl-1H-benzoimidazol-2-yl)-1H-pyrazole-4-carboxylic Acid] | 18.3 | 5.8
COc1ccc(Oc2cc3nc(-n4cc(C(=O)O)cn4)[nH]c3cc2Cl)cc1 [Example 145, 1-[6-Chloro-5-(4-methoxy-phenoxy)-1H-benzoimidazol-2-yl]-1H-pyrazole-4-carboxylic Acid] | 13.9 | 7.1
Cc1cccc(S(=O)(=O)c2cc3nc(-n4cc(C(=O)O)cn4)[nH]c3cc2Cl)c1 [Example 82, 1-[6-Chloro-5-(toluene-3-sulfonyl)-1H-benzoimidazol-2-yl]-1H-pyrazole-4-carboxylic Acid] | 85.3 | 7.4
O=C(O)c1cnn(-c2nc3cc(Oc4ccc(F)cc4)c(C(F)(F)F)cc3[nH]2)c1 [Example 54, 1-[5-(4-Fluoro-phenoxy)-6-trifluoromethyl-1H-benzoimidazol-2-yl]-1H-pyrazole-4-carboxylic Acid] | 75.5 | 7.3

SMILES | EPO secretion, % of control compound (Hep-3B cells) [%] | Enzyme pIC50 (human PHD2181-417)
O=C(O)c1cnn(-c2nc3cc(S(=O)(=O)Cc4ccc(F)cc4)c(Cl)cc3[nH]2)c1 [Example 92, 1-[6-Chloro-5-(4-fluoro-phenylmethanesulfonyl)-1H-benzoimidazol-2-yl]-1H-pyrazole-4-carboxylic Acid] | 61.2 | 7.5
O=C(O)c1cnn(-c2nc3cc(Oc4ccccc4)c(OC(F)(F)F)cc3[nH]2)c1 [Example 53, 1-(5-Phenoxy-6-trifluoromethoxy-1H-benzoimidazol-2-yl)-1H-pyrazole-4-carboxylic Acid] | 138 | 7.2
O=C(O)c1cnn(-c2nc3cc(Oc4ccc(Cl)cc4)c(C(F)(F)F)cc3[nH]2)c1 [Example 55, 1-[5-(4-Chloro-phenoxy)-6-trifluoromethyl-1H-benzoimidazol-2-yl]-1H-pyrazole-4-carboxylic Acid] | 44.2 | 7.5
O=C(O)c1cnn(-c2nc3cc(F)c(N4CCCCC4)cc3[nH]2)c1 [Example 118, 1-(5-Fluoro-6-piperidin-1-yl-1H-benzoimidazol-2-yl)-1H-pyrazole-4-carboxylic Acid] | 152 | 6.8
CS(=O)(=O)c1cc2[nH]c(-n3cc(C(=O)O)cn3)nc2cc1OC(F)(F)F [Example 100, 1-(6-Methanesulfonyl-5-trifluoromethoxy-1H-benzoimidazol-2-yl)-1H-pyrazole-4-carboxylic Acid] | 50.2 | 7.5
O=C(O)c1cnn(-c2nc3cc(COCc4ccccc4)ccc3[nH]2)c1 [Example 123, 1-(5-Benzyloxymethyl-1H-benzoimidazol-2-yl)-1H-pyrazole-4-carboxylic Acid] | 61.1 | 6.3
CSc1cc2[nH]c(-n3cc(C(=O)O)cn3)nc2cc1OC(F)(F)F [Example 79, 1-(6-Methylsulfanyl-5-trifluoromethoxy-1H-benzoimidazol-2-yl)-1H-pyrazole-4-carboxylic Acid] | 83.8 | 7.1
O=C(O)c1cnn(-c2nc3cc(N4CCCCC4)c(OC(F)(F)F)cc3[nH]2)c1 [Example 117, 1-(5-Piperidin-1-yl-6-trifluoromethoxy-1H-benzoimidazol-2-yl)-1H-pyrazole-4-carboxylic Acid] | 80 | 6.5
O=C(O)c1cnn(-c2nc3cc(Oc4ccc(Cl)c(Cl)c4)c(C(F)(F)F)cc3[nH]2)c1 [Example 50, 1-[5-(3,4-Dichloro-phenoxy)-6-trifluoromethyl-1H-benzoimidazol-2-yl]-1H-pyrazole-4-carboxylic Acid] | 18 | 7.4
O=C(O)c1cnn(-c2nc3cc(F)c(F)cc3[nH]2)c1 [Example 36, 1-(5,6-Difluoro-1H-benzoimidazol-2-yl)-1H-pyrazole-4-carboxylic Acid] | 79.4 | 6.6
O=C(O)c1ccc2[nH]c(-n3cc(C(=O)O)cn3)nc2c1 [Example 47, 2-(4-Carboxy-pyrazol-1-yl)-1H-benzoimidazole-5-carboxylic Acid] | 11 | 6.6
O=C(O)c1cnn(-c2nc3c(Cl)cccc3[nH]2)c1 [Example 27, 1-(4-Chloro-1H-benzoimidazol-2-yl)-1H-pyrazole-4-carboxylic Acid] | 19.1 | 6.1
COc1ccc(CS(=O)(=O)c2cc3nc(-n4cc(C(=O)O)cn4)[nH]c3cc2Cl)cc1 [Example 91, 1-[6-Chloro-5-(4-methoxy-phenylmethanesulfonyl)-1H-benzoimidazol-2-yl]-1H-pyrazole-4-carboxylic Acid] | 22 | 7.7
O=C(O)c1cnn(-c2nc3cc(S(=O)(=O)Cc4ccccc4Cl)c(Cl)cc3[nH]2)c1 [Example 93, 1-[6-Chloro-5-(2-chloro-phenylmethanesulfonyl)-1H-benzoimidazol-2-yl]-1H-pyrazole-4-carboxylic Acid] | 78.5 | 7.5
O=C(O)c1cnn(-c2nc3cc(SCc4ccc(Cl)c(Cl)c4)c(Cl)cc3[nH]2)c1 [Example 167, 1-[6-Chloro-5-(3,4-dichloro-benzylsulfanyl)-1H-benzoimidazol-2-yl]-1H-pyrazole-4-carboxylic Acid] | 25.8 | 6.4
O=C(O)c1cnn(-c2nc3cc(Oc4ccc(OC(F)(F)F)cc4)c(Cl)cc3[nH]2)c1 [Example 147, 1-[6-Chloro-5-(4-trifluoromethoxy-phenoxy)-1H-benzoimidazol-2-yl]-1H-pyrazole-4-carboxylic Acid] | 45.9 | 7.4
CS(=O)(=O)c1cc2[nH]c(-n3cc(C(=O)O)cn3)nc2cc1F [Example 98, 1-(5-Fluoro-6-methanesulfonyl-1H-benzoimidazol-2-yl)-1H-pyrazole-4-carboxylic Acid] | 41.4 | 7.3
